Experimental data as given in ChEMBL document CHEMBL4406848, “Novel water soluble BODIPY compounds: Synthesis, photochemical, DNA interaction, topoisomerases inhibition and photodynamic activity properties” (Eur J Med Chem, 2019).
Each block holds one compound with its values, some of them ahead of it. Calls of active or inactive are those of the source. The rule behind the calls is not given here.

Key:
[1] = test system: DNA; experiment: Induction of Escherichia coli plasmid pBR322 DNA cleavage assessed as increase in nicked circular DNA at 6.25 to 50 uM in presence of light irradiation and incubated for 1 hr by agarose gel electrophoresis; assay type: nucleic-acid assay
[2] = test system: HCT-116; experiment: Phototoxicity against human HCT116 cells assessed as cell viability at 100 uM incubated for 24 hrs under 17.5 mW/cm2 light irradiation by MTT assay relative to control; assay type: functional; details: HCT-116, light or radiation study, read-out: Activity
[3] = molecular target: T1, DNA topoisomerase 1 (Homo sapiens) (UniProt P11387); experiment: Inhibition of recombinant human topoisomerase 1 assessed as supercoiled pBR322 DNA at 50 uM incubated for 1 hr by ethidium bromide staining based agarose gel electrophoresis method relative to control; parameters: scale not given: the % may be the effect or the level left
T1 sequence (whole entry): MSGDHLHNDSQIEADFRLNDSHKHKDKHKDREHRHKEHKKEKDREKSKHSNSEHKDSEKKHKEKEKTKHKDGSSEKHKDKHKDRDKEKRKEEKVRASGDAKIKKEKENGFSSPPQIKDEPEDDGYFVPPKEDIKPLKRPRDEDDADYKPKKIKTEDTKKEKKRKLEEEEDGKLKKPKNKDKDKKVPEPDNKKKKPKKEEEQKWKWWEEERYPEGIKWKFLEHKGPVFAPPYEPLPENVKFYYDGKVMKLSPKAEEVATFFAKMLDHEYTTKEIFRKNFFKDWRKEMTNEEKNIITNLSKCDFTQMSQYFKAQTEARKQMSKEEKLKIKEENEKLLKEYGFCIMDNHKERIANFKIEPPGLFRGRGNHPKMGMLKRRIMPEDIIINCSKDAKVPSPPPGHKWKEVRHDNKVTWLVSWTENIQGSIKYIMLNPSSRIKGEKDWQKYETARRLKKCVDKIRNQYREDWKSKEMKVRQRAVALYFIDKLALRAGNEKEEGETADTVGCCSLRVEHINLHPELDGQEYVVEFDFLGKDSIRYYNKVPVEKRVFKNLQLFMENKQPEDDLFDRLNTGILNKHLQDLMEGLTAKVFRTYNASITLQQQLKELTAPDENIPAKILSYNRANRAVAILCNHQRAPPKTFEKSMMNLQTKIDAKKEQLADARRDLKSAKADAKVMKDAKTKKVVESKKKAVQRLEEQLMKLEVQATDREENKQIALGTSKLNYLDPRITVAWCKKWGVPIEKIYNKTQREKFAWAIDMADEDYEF

[4] = test system: HCT-116; experiment: Phototoxicity against human HCT116 cells assessed as cell viability at 0.5 uM incubated for 24 hrs under 17.5 mW/cm2 light irradiation by MTT assay relative to control; assay type: functional; details: HCT-116, light or radiation study, read-out: Activity
[5] = molecular target: T1, DNA topoisomerase 1 (Homo sapiens); experiment: Inhibition of recombinant human topoisomerase 1 at 12.50 uM incubated for 1 hr by ethidium bromide staining based agarose gel electrophoresis method relative to control
[6] = molecular target: T2, DNA topoisomerase II (Homo sapiens) (UniProt P11388+Q02880); experiment: Inhibition of recombinant human topoisomerase 2 assessed as supercoiled DNA at 25 uM incubated for 1 hr by ethidium bromide staining based agarose gel electrophoresis method relative to control; assay type: protein assay; parameters: scale not given: the % may be the effect or the level left
[7] = molecular target: T1, DNA topoisomerase 1 (Homo sapiens); experiment: Inhibition of recombinant human topoisomerase 1 assessed as supercoiled pBR322 DNA at 12.5 uM incubated for 1 hr by ethidium bromide staining based agarose gel electrophoresis method relative to control; parameters: scale not given: the % may be the effect or the level left
[8] = test system: HCT-116; experiment: Induction of apoptosis in human HCT116 cells assessed as early apoptotic cells at 50 uM incubated for 24 hrs in presence of irradiation by annexin V FITC and propidium iodide based flow cytometry (reference value: 3.4 %); assay type: functional
[9] = test system: DNA; experiment: Induction of Escherichia coli plasmid pBR322 DNA cleavage at 3.125 to 25 uM incubated for 1 hr in dark by agarose gel electrophoresis; assay type: nucleic-acid assay
[10] = test system: HCT-116; experiment: Induction of apoptosis in human HCT116 cells assessed as late apoptotic cells at 50 uM incubated for 24 hrs in presence of irradiation by annexin V FITC and propidium iodide based flow cytometry (reference value: 1.6 %); assay type: functional
[11] = test system: HCT-116; experiment: Induction of apoptosis in human HCT116 cells assessed as necrotic cells at 50 uM incubated for 24 hrs in presence of irradiation by annexin V FITC and propidium iodide based flow cytometry (reference value: 0.2 %); assay type: functional
[12] = test system: DNA; experiment: Induction of Escherichia coli plasmid pBR322 DNA cleavage assessed as decrease in supercoiled DNA at 6.25 to 50 uM in presence of light irradiation and incubated for 1 hr by agarose gel electrophoresis relative to control; assay type: nucleic-acid assay; parameters: scale not given: the % may be the effect or the level left
[13] = molecular target: T2, DNA topoisomerase II (Homo sapiens); experiment: Inhibition of recombinant human topoisomerase 2 assessed as supercoiled DNA at 12.5 uM incubated for 1 hr by ethidium bromide staining based agarose gel electrophoresis method relative to control; assay type: protein assay; parameters: scale not given: the % may be the effect or the level left
[14] = test system: DNA; experiment: Induction of Escherichia coli plasmid pBR322 DNA cleavage assessed as increase in nicked circular DNA at 3.125 uM in presence of light irradiation and incubated for 1 hr by agarose gel electrophoresis relative to control; assay type: nucleic-acid assay
[15] = molecular target: T1, DNA topoisomerase 1 (Homo sapiens); experiment: Inhibition of recombinant human topoisomerase 1 at 25 uM incubated for 1 hr by ethidium bromide staining based agarose gel electrophoresis method relative to control
[16] = test system: HCT-116; experiment: Induction of apoptosis in human HCT116 cells assessed as necrotic cells at 5 uM incubated for 24 hrs in presence of irradiation by annexin V FITC and propidium iodide based flow cytometry (reference value: 0.2 %); assay type: functional
[17] = test system: Calf thymus DNA; experiment: Competitive binding affinity to calf thymus DNA assessed as binding constant in presence of ethidium bromide incubated for 10 mins by UV-visible spectrophotometry; assay type: nucleic-acid assay; details: Bos taurus
[18] = test system: DNA; experiment: Induction of Escherichia coli plasmid pBR322 DNA cleavage assessed as increase in nicked circular DNA at 50 uM in presence of light irradiation and incubated for 1 hr by agarose gel electrophoresis; assay type: nucleic-acid assay
[19] = test system: HCT-116; experiment: Induction of apoptosis in human HCT116 cells assessed as early apoptotic cells at 5 uM incubated for 24 hrs in presence of irradiation by annexin V FITC and propidium iodide based flow cytometry (reference value: 3.4 %); assay type: functional
[20] = test system: HCT-116; experiment: Induction of apoptosis in human HCT116 cells assessed as viable cells at 5 uM incubated for 24 hrs in presence of irradiation by annexin V FITC and propidium iodide based flow cytometry (reference value: 94.8 %); assay type: functional; details: HCT-116, light or radiation study, read-out: Activity
[21] = molecular target: T1, DNA topoisomerase 1 (Homo sapiens); experiment: Inhibition of recombinant human topoisomerase 1 assessed as linear DNA at 50 uM incubated for 1 hr by ethidium bromide staining based agarose gel electrophoresis method relative to control
[22] = test system: HCT-116; experiment: Induction of apoptosis in human HCT116 cells assessed as late apoptotic cells at 5 uM incubated for 24 hrs in presence of irradiation by annexin V FITC and propidium iodide based flow cytometry (reference value: 1.6 %); assay type: functional
[23] = test system: DNA; experiment: Induction of Escherichia coli plasmid pBR322 DNA cleavage assessed as linear form at 50 uM irradiated with light and incubated for 1 hr by agarose gel electrophoresis; assay type: nucleic-acid assay
[24] = test system: DNA; experiment: Induction of Escherichia coli plasmid pBR322 DNA cleavage assessed as increase in nicked circular DNA in presence of light irradiation and incubated for 1 hr by agarose gel electrophoresis; assay type: nucleic-acid assay
[25] = test system: DNA; experiment: Induction of Escherichia coli plasmid pBR322 DNA cleavage assessed as decrease in supercoiled DNA at 50 uM in presence of light irradiation and incubated for 1 hr by agarose gel electrophoresis; assay type: nucleic-acid assay

Activity [1]: Active
Activity [3]: 69.5%
inhibition [5]: 89.1%
Activity [6]: 81.8%
Activity [7]: 64.2%
Activity [9]: inactive
Activity [12]: 100%
Activity [13]: 77.5%
Activity [14]: 41.5%
inhibition [15]: 89.4%
SMILES: CC1=CC(/C=C/c2ccc(OCCCc3ccc[n+](C)c3)c(OCCCc3ccc[n+](C)c3)c2)=[N+]2C1=C(c1ccc(OCCCc3ccc[n+](C)c3)c(OCCCc3ccc[n+](C)c3)c1)c1c(C)cc(/C=C/c3ccc(OCCCc4ccc[n+](C)c4)c(OCCCc4ccc[n+](C)c4)c3)n1[B-]2(F)F.[I-].[I-].[I-].[I-].[I-].[I-]
viability at 100 µM [2]: 66%
viability at 0.5 µM [4]: 100%
Activity [8]: 4.8%
Activity [10]: 1.4%
Activity [11]: 0.2%

Activity [17]: inactive
Activity [18]: inactive
inhibition [5]: 88.5%
inhibition [21]: 100%
Activity [9]: inactive
Activity [23]: inactive
inhibition [15]: 88.6%
Activity [24]: Dose-dependent effect
Activity [25]: inactive
SMILES: CC1=CC(/C=C/c2ccc(OCCCc3ccc[n+](C)c3)cc2)=[N+]2C1=C(c1ccc(OCCCc3ccc[n+](C)c3)cc1)c1c(C)cc(/C=C/c3ccc(OCCCc4ccc[n+](C)c4)cc3)n1[B-]2(F)F.[I-].[I-].[I-]
Activity [16]: 10.7%
viability at 100 µM [2]: 0%
Activity [19]: 35.8%
viability at 0.5 µM [4]: 100%
viability at 5 µM [20]: 23%
Activity [22]: 30.5%
